Data reported in US5824653A, “Anthelmintic compositions for equidae” (priority 1994, dated 1998).

What was measured:
Gasterophilus spp. [1] = test: Trial 1: modified critical test, efficacy against Gasterophilus spp. in horses; format: in vivo; details: Trial 1, horses
Method: (§1) The method of evaluating the activity of the formulation was a modified critical test (Lyons et al., 1986) which involved killing the horses 24 hours after treatment.
(§2) Efficacy is the number of worms count dead and removed versus the number of worms count alive and not removed (scolex attached for Anaplocephala perfoliata).
(§3) A trial involving abamectin paste (1 ml per 20 kg of body weight equivalent to 0.2 mg of Abamectin per kg B.W.), praziquantel paste (0.1 to 5 mg of Praziquantel per kg of body weight), and formulations in accordance with examples 1,2,3,4 and 5.
(§4) Eleven groups of ten horses per group were involved in the study. Area of origin of the horses was well known for having internal parasitism problem and specifically tapeworms (Anoplocephala perfoliata) infestation.

[2] = Biodisponibility of praziquantel in horses; format: in vivo; details: paste formula
Gasterophilus spp. [3] = test: Trial 2: modified critical test, efficacy against Gasterophilus spp. in horses; format: in vivo; details: Trial 2, horses
Method: as §1, §2
(§5) A trial involving Ivermectin drench (1 ml per 10 kg of body weight equivalent to 0.2 mg of Ivermectin per kg B.W.), praziquantel drench (0.5 to 2 mg of praziquantel per kg of body weight), and formulations in accordance with Examples 6, 7 and 8.
(§6) Seven groups of 6 horses per group were involved in the study. Area of origin of the horses was well known for having internal parasitism problem and specifically tapeworms (Anoplocephala perfoliata) infestation.

Anoplocephala perfoliata [4] = test: Trial 1: modified critical test, efficacy against Anoplocephala perfoliata in horses; format: in vivo; details: Trial 1, horses
Method: as §1, §2, §3, §4

Parascaris equorum [5] = test: Trial 2: modified critical test, efficacy against Parascaris equorum in horses; format: in vivo; details: Trial 2, horses
Method: as §1, §2, §5, §6

[6] = cited from earlier work
Strongylidase [7] = test: Trial 1: modified critical test, efficacy against Strongylidase in horses; format: in vivo; details: Trial 1, horses
Method: as §1, §2, §3, §4

Anoplocephala perfoliata [8] = test: Trial 2: modified critical test, efficacy against Anoplocephala perfoliata in horses; format: in vivo; details: Trial 2, horses
Method: as §1, §2, §5, §6

Strongylidase [9] = test: Trial 2: modified critical test, efficacy against Strongylidase in horses; format: in vivo; details: Trial 2, horses
Method: as §1, §2, §5, §6

Parascaris equorum [10] = test: Trial 1: modified critical test, efficacy against Parascaris equorum in horses; format: in vivo; details: Trial 1, horses
Method: as §1, §2, §3, §4

In the case of `O=C(C1CCCCC1)N1CC(=O)N2CCc3ccccc3C2C1` (stereo not drawn) [Praziquantel, 2(cyclohexylcarbonyl)-1,2,3,6,7,11b-hexahydro-4H-pyrazino[2,1-a]isoquinolin-4-one], the “% Efficacy Gasterophilus spp.” value (Gasterophilus spp. [1]; praziquantel 0.1 mg/kg) is reported as 0%, the “% Efficacy Gasterophilus spp.” value (Gasterophilus spp. [1]; praziquantel 0.5 mg/kg) is reported as 0% and the “% Efficacy Gasterophilus spp.” value (Gasterophilus spp. [1]; praziquantel 1 mg/kg) is reported as 0%. The “% Efficacy Gasterophilus spp.” value (Gasterophilus spp. [1]; praziquantel 2 mg/kg) was 0%, the “% Efficacy Gasterophilus spp.” value (Gasterophilus spp. [1]; praziquantel 5 mg/kg) was 0% and the biodisponibility of praziquantel [2] was “better biodisponibility”. For the same compound, the “% Efficacy Gasterophilus spp.” value (Gasterophilus spp. [3]; praziquantel 0.5 mg/kg) was 0%, the “% Efficacy Gasterophilus spp.” value (Gasterophilus spp. [3]; praziquantel 1 mg/kg) was 0% and the “% Efficacy Gasterophilus spp.” value (Gasterophilus spp. [3]; praziquantel 2 mg/kg) was 0%. For the same compound, the “% Efficacy Anoplocephala perfoliata” value (Anoplocephala perfoliata [4]; praziquantel 0.1 mg/kg) was 0%, the “% Efficacy Anoplocephala perfoliata” value (Anoplocephala perfoliata [4]; praziquantel 0.5 mg/kg) was 27% and the “% Efficacy Anoplocephala perfoliata” value (Anoplocephala perfoliata [4]; praziquantel 1 mg/kg) was 51%. The “% Efficacy Anoplocephala perfoliata” value (Anoplocephala perfoliata [4]; praziquantel 2 mg/kg) was 71%, the “% Efficacy Anoplocephala perfoliata” value (Anoplocephala perfoliata [4]; praziquantel 5 mg/kg) was 33% and the “% Efficacy Parascaris equorum” value (Parascaris equorum [5]; praziquantel 0.5 mg/kg) was 0%. For the same compound, the “% Efficacy Parascaris equorum” value (Parascaris equorum [5]; praziquantel 1 mg/kg) was 0%, the “% Efficacy Parascaris equorum” value (Parascaris equorum [5]; praziquantel 2 mg/kg) was 0% and the solubility in water [6] was “relatively insoluble”. The “% Efficacy Strongylidase” value (Strongylidase [7]; praziquantel 0.1 mg/kg) was 0%, the “% Efficacy Strongylidase” value (Strongylidase [7]; praziquantel 0.5 mg/kg) was 0% and the “% Efficacy Strongylidase” value (Strongylidase [7]; praziquantel 1 mg/kg) was 0%. The “% Efficacy Strongylidase” value (Strongylidase [7]; praziquantel 2 mg/kg) was 0%, the “% Efficacy Strongylidase” value (Strongylidase [7]; praziquantel 5 mg/kg) was 0% and the “% Efficacy Anoplocephala perfoliata” value (Anoplocephala perfoliata [8]; praziquantel 0.5 mg/kg) was 21%. The “% Efficacy Anoplocephala perfoliata” value (Anoplocephala perfoliata [8]; praziquantel 1 mg/kg) was 43%, the “% Efficacy Anoplocephala perfoliata” value (Anoplocephala perfoliata [8]; praziquantel 2 mg/kg) was 59% and the “% Efficacy Strongylidase” value (Strongylidase [9]; praziquantel 0.5 mg/kg) was 0%. The “% Efficacy Strongylidase” value (Strongylidase [9]; praziquantel 1 mg/kg) was 0%, the “% Efficacy Strongylidase” value (Strongylidase [9]; praziquantel 2 mg/kg) was 0% and the “% Efficacy Parascaris equorum” value (Parascaris equorum [10]; praziquantel 0.1 mg/kg) was 0%. For the same compound, the “% Efficacy Parascaris equorum” value (Parascaris equorum [10]; praziquantel 0.5 mg/kg) was 0%, the “% Efficacy Parascaris equorum” value (Parascaris equorum [10]; praziquantel 1 mg/kg) was 0% and the “% Efficacy Parascaris equorum” value (Parascaris equorum [10]; praziquantel 2 mg/kg) was 0%. The “% Efficacy Parascaris equorum” value (Parascaris equorum [10]; praziquantel 5 mg/kg) was 0%.
For `CC[C@H](C)[C@H]1O[C@]2(CC[C@@H]1C)C[C@@H]1C[C@@H](C/C=C(\C)[C@@H](O[C@H]3C[C@H](OC)[C@@H](O[C@H]4C[C@H](OC)[C@@H](O)[C@H](C)O4)[C@H](C)O3)[C@@H](C)/C=C/C=C3\CO[C@@H]4[C@H](O)C(C)=C[C@@H](C(=O)O1)[C@]34O)O2` [Ivermectin], the “% Efficacy Gasterophilus spp.” value (Gasterophilus spp. [3]; ivermectin 0.2 mg/kg) was 100%, the “% Efficacy Parascaris equorum” value (Parascaris equorum [5]; ivermectin 0.2 mg/kg) was 100% and the “% Efficacy Anoplocephala perfoliata” value (Anoplocephala perfoliata [8]; ivermectin 0.2 mg/kg) was 0%. For the same compound, the “% Efficacy Strongylidase” value (Strongylidase [9]; ivermectin 0.2 mg/kg) was 100%.
With Abamectin the “% Efficacy Gasterophilus spp.” value (Gasterophilus spp. [1]; abamectin 0.2 mg/kg) was 100%, the “% Efficacy Anoplocephala perfoliata” value (Anoplocephala perfoliata [4]; abamectin 0.2 mg/kg) was 0% and the “% Efficacy Strongylidase” value (Strongylidase [7]; abamectin 0.2 mg/kg) was 100%. For the same compound, the “% Efficacy Parascaris equorum” value (Parascaris equorum [10]; abamectin 0.2 mg/kg) was 100%.
